Data taken from the supplement of paper PMC10627819.

How the values were obtained:
S. pneumoniae D39V [1] = experiment: fitness (endpoint OD595 vs no drug) (fraction); higher = more growth
In short: (§1)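 Fitness was defined as the optical density at the transition into stationary phase relative to the robust mean of no-drug control wells. Values were capped at 1. Cultures were started at OD595 0.01 in 384-well plates (30 µl, or 55 µl for S. pneumoniae) in TSB, LB Lennox or CY at 37 °C. OD595 was recorded every 30 min over 14 h, with the first reading subtracted as background.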

B. subtilis 168 [2] = experiment: as above
In short: as §1

S. pneumoniae D39V [3] = experiment: Bliss interaction score (quartile over a dose matrix) (fitness difference); higher = more antagonism (negative = synergy)
In short: (§2)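 Quartiles of the Bliss score were taken over technical, biological and donor/recipient replicates. That score is observed fitness minus the product of the single-drug fitness values, which were inferred from combination data. Fitness itself is OD595 at entry into stationary phase divided by the plate's robust no-drug mean, with a cap at 1.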

S. aureus DSM 20231 = experiment: as above
In short: as §2

S. aureus Newman = experiment: as above
In short: as §2

B. subtilis 168 [4] = experiment: as above
In short: as §2
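Throughout, for Bliss interaction score (quartile over a dose matrix): first quartile when negative (synergy) and third quartile when positive (antagonism).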

COc1cccc2c1C(=O)c1c(O)c3c(c(O)c1C2=O)C[C@@](O)(C(=O)CO)C[C@@H]3O[C@H]1C[C@H](N)[C@H](O)[C@H](C)O1 [Doxorubicin] + CN(C)C(=O)C(CCN1CCC(O)(c2ccc(Cl)cc2)CC1)(c1ccccc1)c1ccccc1 [Loperamide]
Conditions	fitness
B. subtilis 168 [2], first compound 0.625 µg/mL, partner 50 µg/mL	0.0285
B. subtilis 168 [2], first compound 0.625 µg/mL, partner 100 µg/mL	0.0284
B. subtilis 168 [2], first compound 1.25 µg/mL, partner 50 µg/mL	0.0281
B. subtilis 168 [2], first compound 1.25 µg/mL, partner 100 µg/mL	0.0427
B. subtilis 168 [2], first compound 2.5 µg/mL, partner 25 µg/mL	0.0131
B. subtilis 168 [2], first compound 2.5 µg/mL, partner 50 µg/mL	0.0232
B. subtilis 168 [2], first compound 2.5 µg/mL, partner 100 µg/mL	0.019
S. pneumoniae D39V [1], first compound 0.25 µg/mL, partner 17.14 µg/mL	0.905
S. pneumoniae D39V [1], first compound 0.25 µg/mL, partner 20 µg/mL	≥ 1
S. pneumoniae D39V [1], first compound 0.25 µg/mL, partner 34.28 µg/mL	0.884
S. pneumoniae D39V [1], first compound 0.25 µg/mL, partner 40 µg/mL	≥ 1
S. pneumoniae D39V [1], first compound 0.5 µg/mL, partner 17.14 µg/mL	0.915
S. pneumoniae D39V [1], first compound 0.5 µg/mL, partner 20 µg/mL	≥ 1
S. pneumoniae D39V [1], first compound 0.5 µg/mL, partner 34.28 µg/mL	0.899
S. pneumoniae D39V [1], first compound 0.5 µg/mL, partner 40 µg/mL	≥ 1
S. pneumoniae D39V [1], first compound 1 µg/mL, partner 17.14 µg/mL	0.912
S. pneumoniae D39V [1], first compound 1 µg/mL, partner 20 µg/mL	0.991
S. pneumoniae D39V [1], first compound 1 µg/mL, partner 34.28 µg/mL	0.902
S. pneumoniae D39V [1], first compound 1 µg/mL, partner 40 µg/mL	0.967

S. pneumoniae D39V [1], partner 68.57 µg/mL, one replicate
Conditions	fitness
first compound 0.25 µg/mL	0.87
first compound 0.5 µg/mL	0.872
first compound 1 µg/mL	0.929

Conditions	Bliss interaction score
B. subtilis 168 [4]	-0.228
S. aureus DSM 20231	-0.0983
S. aureus Newman	-0.0664
S. pneumoniae D39V [3]	0.0787

O=C(O)c1cn(C2CC2)c2cc(N3CCNCC3)c(F)cc2c1=O [Ciprofloxacin] + C[C@H]1COc2c(N3CCN(C)CC3)c(F)cc3c(=O)c(C(=O)O)cn1c23 [Levofloxacin]
Conditions	fitness
B. subtilis 168 [2], first compound 0.0098 µg/mL, partner 0.002 µg/mL	0.855
B. subtilis 168 [2], first compound 0.0098 µg/mL, partner 0.0039 µg/mL	0.873
B. subtilis 168 [2], first compound 0.0098 µg/mL, partner 0.0312 µg/mL	0.0377
B. subtilis 168 [2], first compound 0.0098 µg/mL, partner 0.0625 µg/mL	0.0424
B. subtilis 168 [2], first compound 0.0098 µg/mL, partner 0.125 µg/mL	0.0385
B. subtilis 168 [2], first compound 0.0195 µg/mL, partner 0.002 µg/mL	0.727
B. subtilis 168 [2], first compound 0.0195 µg/mL, partner 0.0039 µg/mL	0.722
B. subtilis 168 [2], first compound 0.0195 µg/mL, partner 0.0312 µg/mL	0.0376
B. subtilis 168 [2], first compound 0.0195 µg/mL, partner 0.0625 µg/mL	0.0489
B. subtilis 168 [2], first compound 0.0195 µg/mL, partner 0.125 µg/mL	0.0429
B. subtilis 168 [2], first compound 0.039 µg/mL, partner 0.002 µg/mL	0.123
B. subtilis 168 [2], first compound 0.039 µg/mL, partner 0.0039 µg/mL	0.145
B. subtilis 168 [2], first compound 0.039 µg/mL, partner 0.0312 µg/mL	0.0451
B. subtilis 168 [2], first compound 0.039 µg/mL, partner 0.0625 µg/mL	0.0495
B. subtilis 168 [2], first compound 0.039 µg/mL, partner 0.125 µg/mL	0.0401
S. pneumoniae D39V [1], first compound 0.125 µg/mL, partner 0.1725 µg/mL	0.884
S. pneumoniae D39V [1], first compound 0.125 µg/mL, partner 0.2 µg/mL	0.883
S. pneumoniae D39V [1], first compound 0.125 µg/mL, partner 0.345 µg/mL	0.794
S. pneumoniae D39V [1], first compound 0.125 µg/mL, partner 0.4 µg/mL	0.735
S. pneumoniae D39V [1], first compound 0.125 µg/mL, partner 0.69 µg/mL	0.498
S. pneumoniae D39V [1], first compound 0.125 µg/mL, partner 0.8 µg/mL	0.201
S. pneumoniae D39V [1], first compound 0.25 µg/mL, partner 0.1725 µg/mL	0.83
S. pneumoniae D39V [1], first compound 0.25 µg/mL, partner 0.345 µg/mL	0.723
S. pneumoniae D39V [1], first compound 0.25 µg/mL, partner 0.69 µg/mL	0.445
S. pneumoniae D39V [1], first compound 0.5 µg/mL, partner 0.1725 µg/mL	0.592
S. pneumoniae D39V [1], first compound 0.5 µg/mL, partner 0.345 µg/mL	0.462
S. pneumoniae D39V [1], first compound 0.5 µg/mL, partner 0.69 µg/mL	0.282
S. pneumoniae D39V [1], first compound 0.5 µg/mL, partner 0.8 µg/mL	0.145

one replicate
Conditions	fitness
B. subtilis 168 [2], first compound 0.0098 µg/mL, partner 0.001 µg/mL	0.863
B. subtilis 168 [2], first compound 0.0098 µg/mL, partner 0.0078 µg/mL	0.934
B. subtilis 168 [2], first compound 0.0195 µg/mL, partner 0.001 µg/mL	0.829
B. subtilis 168 [2], first compound 0.0195 µg/mL, partner 0.0078 µg/mL	0.683
B. subtilis 168 [2], first compound 0.039 µg/mL, partner 0.001 µg/mL	0.291
B. subtilis 168 [2], first compound 0.039 µg/mL, partner 0.0078 µg/mL	0.0887
S. pneumoniae D39V [1], first compound 0.25 µg/mL, partner 0.2 µg/mL	0.752
S. pneumoniae D39V [1], first compound 0.25 µg/mL, partner 0.4 µg/mL	0.559
S. pneumoniae D39V [1], first compound 0.25 µg/mL, partner 0.8 µg/mL	0.124

Conditions	Bliss interaction score
B. subtilis 168 [4]	-0.0411
S. aureus DSM 20231	-0.147
S. aureus Newman	-0.194
S. pneumoniae D39V [3]	-0.166

CO/N=C(\C(=O)N[C@@H]1C(=O)N2C(C(=O)O)=C(COC(C)=O)CS[C@H]12)c1csc(N)n1 [Cefotaxime] + C[C@H]1c2cccc(O)c2C(=O)C2=C(O)[C@]3(O)C(=O)C(C(N)=O)=C(O)[C@@H](N(C)C)[C@@H]3[C@@H](O)[C@@H]21 [Doxycycline]
fitness, one replicate
Conditions	first compound 0.0018 µg/mL	first compound 0.0035 µg/mL	first compound 0.007 µg/mL	first compound 0.00775 µg/mL	first compound 0.0155 µg/mL	first compound 0.031 µg/mL	first compound 0.0625 µg/mL	first compound 0.125 µg/mL	first compound 0.25 µg/mL
B. subtilis 168 [2], partner 0.02 µg/mL	–	–	–	0.855	0.698	0.508	0.608	0.538	0.467
B. subtilis 168 [2], partner 0.04 µg/mL	–	–	–	0.665	0.523	0.377	0.511	0.366	0.304
B. subtilis 168 [2], partner 0.08 µg/mL	–	–	–	0.278	0.0446	0.0311	0.343	0.209	0.252
S. pneumoniae D39V [1], partner 0.003875 µg/mL	≥ 1	≥ 1	0.866	–	–	–	–	–	–
S. pneumoniae D39V [1], partner 0.00775 µg/mL	≥ 1	0.974	0.888	–	–	–	–	–	–

fitness
Conditions	first compound 0.0018 µg/mL	first compound 0.0035 µg/mL	first compound 0.007 µg/mL	first compound 0.5 µg/mL	first compound 1 µg/mL	first compound 2 µg/mL
B. subtilis 168 [2], partner 0.02 µg/mL	–	–	–	0.288	0.198	0.157
B. subtilis 168 [2], partner 0.04 µg/mL	–	–	–	0.204	0.086	0.0899
B. subtilis 168 [2], partner 0.08 µg/mL	–	–	–	0.0692	0.0318	0.0723
S. pneumoniae D39V [1], partner 0.0155 µg/mL	0.955	0.943	0.864	–	–	–
S. pneumoniae D39V [1], partner 0.031 µg/mL	0.814	0.801	0.794	–	–	–

Conditions	Bliss interaction score
B. subtilis 168 [4]	0.0737
S. aureus DSM 20231	0.141
S. aureus Newman	0.0304
S. pneumoniae D39V [3]	0.0963
